{"source": "the NIST ThermoML archive (doi:10.1016/j.jct.2017.03.024)", "conditions": "Liquid, Closed cell (Static) method", "note": "Numbers after ± are expanded uncertainties.", "data": [{"smiles": "O", "note": "[water]", "values": [{"measurement": "vapor or sublimation pressure", "setting": "298 K", "value": "3.35 ± 2.4", "unit": "kPa"}, {"measurement": "vapor or sublimation pressure", "setting": "313 K", "value": "7.4 ± 2.4", "unit": "kPa"}, {"measurement": "vapor or sublimation pressure", "setting": "323 K", "value": "12.12 ± 2.4", "unit": "kPa"}, {"measurement": "vapor or sublimation pressure", "setting": "328.2 K", "value": "15.07 ± 2.4", "unit": "kPa"}, {"measurement": "vapor or sublimation pressure", "setting": "333 K", "value": "18.99 ± 2.4", "unit": "kPa"}, {"measurement": "vapor or sublimation pressure", "setting": "337.5 K", "value": "23.33 ± 2.4", "unit": "kPa"}]}]}
